Entries after “also recorded” stand apart in the source; their conditions may differ.
Legend:
[1] = system: monoacylglycerol lipase (MAGL); settings: De Petrocellis et al., 2011; cited from earlier work
[2] = system: endocannabinoid cellular reuptake; settings: Ligresti et al., 2006; cited from earlier work
[3] = system: Poly(I:C)-induced ARDS in C57BL/6 mice; experiment: Poly(I:C)-induced ARDS mouse model, CBC treatment
Protocol: Animal model and application of Poly(I:C) and CBC: Wild-type (WT) C57BL/6 mice (male, 12 weeks old) were divided into 3 experimental groups of sham, control and treatment (n=5). […] All mice were anesthetized with isoflurane. Sham group received PBS while control and treatment groups were administered by Poly(I:C) (Sigma Aldrich, USA) (100 μg in 50 μl sterile PBS) intranasally (I/N) three once-daily doses. CBC (isolate THC free) was delivered intraperitoneally (5mg/kg), first dose two hours after the second Poly(I:C) treatment and every other day interval, total of 3 doses. Sham and control groups received PBS only. All mice were sacrificed at 8 days after the first Poly(I:C) application. Blood and lung tissues were harvested and subjected to the further analysis.
Measurement of vital signs: Vital signs including temperature, Blood O2 saturation were measured prior and post of any treatment. Central body temperature was measured rectally and blood oxygen saturation was determined using portable pulse oximetry through carotid arteries.
Histology and immunohistochemistry: Left lobes of lung tissue were fixed in 10% neutral buffered formalin. Samples were processed by routine methods, oriented so as to provide coronal sections and 5 micron mid-coronal sections cut and stained with hematoxylin & eosin, Trichrome for histology. As for inflammatory indices, immunohistochemistry was performed by incubating the samples with specific antibodies against murine IL-6 (Cat #554402, BD BioSciences Pharmingen) and Neutrophils (Cat #G102, Leinco Technologies). Preparations were counterstained with hematoxylin (catalog no. 7221; Richard-Allan Scientific, Kalamazoo, MI, USA) and mounted in Faramount (catalog no. S3025, DAKO), analyzed and imaged by brightfield microscopy.
Analytical Flow Cytometry: Single cell suspension was prepared from lung tissues. Briefly, tissue samples were sieved through a 100 μM cell strainer (BD Biosciences, San Diego, CA), followed by centrifugation (1,000 rpm, 10 min) to prepare single-cell suspensions. All cells were then stained with fluorescent antibodies to quantify neutrophils, macrophages, lymphocytes and cytokine expression. Briefly, all cells were stained with anti-Gr1 (Neutrophils), Anti-F4/80 (Macrophages), and anti-CD3/CD4/CD8 (Lymphocytes, all from Biolegend USA). Then cells were fixed and permeabilized and stained intracellularly for cytokines including IL-6, TNFα, IL-2, and IFNγ (Proinflammatory cytokines). All samples were run through a 4-Laser LSR II flow cytometer. Cells were gated based on forward and side scatter properties and on marker combinations to select cells of interest. All acquired flow cytometry data were analyzed using the FlowJo V10.
Statistical analysis: Graphs and summary statistics were also used to assess the results. All statistical tests were 2-sided. Except for where noted, all p-values presented are unadjusted for multiple comparisons.

[4] = target: transient receptor potential (TRP) ankyrin 1-type (TRPA1) channels (Rattus norvegicus, UniProt Q6RI86); settings: De Petrocellis et al., 2008; 2011; cited from earlier work
Chain of transient receptor potential (TRP) ankyrin 1-type (TRPA1) channels (Q6RI86 whole entry): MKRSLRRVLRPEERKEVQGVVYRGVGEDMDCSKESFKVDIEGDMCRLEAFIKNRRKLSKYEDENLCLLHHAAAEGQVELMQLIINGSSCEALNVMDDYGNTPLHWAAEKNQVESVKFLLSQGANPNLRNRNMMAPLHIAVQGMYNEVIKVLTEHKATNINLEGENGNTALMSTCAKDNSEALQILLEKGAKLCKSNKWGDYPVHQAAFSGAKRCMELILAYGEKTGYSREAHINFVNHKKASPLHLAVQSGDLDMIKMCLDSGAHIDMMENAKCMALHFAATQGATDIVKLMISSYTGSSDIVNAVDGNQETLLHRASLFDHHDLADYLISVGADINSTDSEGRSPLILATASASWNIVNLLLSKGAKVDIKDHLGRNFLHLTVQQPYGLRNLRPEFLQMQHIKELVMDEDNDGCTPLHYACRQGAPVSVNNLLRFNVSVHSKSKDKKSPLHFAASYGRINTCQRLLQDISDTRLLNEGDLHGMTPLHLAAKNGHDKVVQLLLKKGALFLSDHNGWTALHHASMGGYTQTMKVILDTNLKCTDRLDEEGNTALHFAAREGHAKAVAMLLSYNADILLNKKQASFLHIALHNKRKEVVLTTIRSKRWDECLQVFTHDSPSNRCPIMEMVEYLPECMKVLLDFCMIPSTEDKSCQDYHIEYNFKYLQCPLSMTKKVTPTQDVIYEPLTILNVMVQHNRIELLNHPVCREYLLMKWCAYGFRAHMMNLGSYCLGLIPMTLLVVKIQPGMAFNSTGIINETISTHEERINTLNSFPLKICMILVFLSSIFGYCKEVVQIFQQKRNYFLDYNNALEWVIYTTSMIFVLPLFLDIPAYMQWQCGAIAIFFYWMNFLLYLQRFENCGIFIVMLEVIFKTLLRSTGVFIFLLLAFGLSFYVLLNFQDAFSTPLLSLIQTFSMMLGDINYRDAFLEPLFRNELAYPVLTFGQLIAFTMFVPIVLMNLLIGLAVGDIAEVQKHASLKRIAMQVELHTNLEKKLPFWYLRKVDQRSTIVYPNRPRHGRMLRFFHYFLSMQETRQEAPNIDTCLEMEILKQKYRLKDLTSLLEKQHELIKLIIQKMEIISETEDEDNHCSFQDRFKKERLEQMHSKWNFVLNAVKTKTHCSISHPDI

[5] = system: Poly(I:C)-induced ARDS in C57BL/6 mice; experiment: Poly(I:C)-induced ARDS mouse model, CBD treatment
Protocol: Animal model and application of Poly(I:C) and CBC: Adult (12 weeks) male C57B1/6 mice were block randomized into one of three experimental groups (n=10 mice/group) by a blinded investigator. Group I received intranasal, once daily administration of sterile saline for three consecutive days to serve as a control. Group II received intranasal, once daily administration of Poly I:C (100 μg in 50 μL in sterile saline) for three consecutive days to mimic ARDS. Group III received intranasal, once daily administration of Poly I:C (100 μg in 50 μL in sterile saline) for three consecutive days, with intraperitoneal administration of CBD (isolate CBD, THC-free, 5 mg/kg body weight, Canabidiol Ltd, Dublin, Ireland), first dose two hours after the second Poly(I:C) treatment and every other day for a total of 3 doses to the treatment group. Blood oxygen saturation was quantified via the carotid arteries using a portable pulse oximeter at study initiation (day 0) and once daily for the duration of the study. Mice were euthanized at study day nine. Blood and lung tissue were harvested and subjected to flow cytometry, immunofluorescence and histological analysis, as detailed above. All flow cytometry data were analysed using the FlowJo V10 software while immunofluorescence, and histological preparations were analysed and imaged by fluorescence and bright field microscopy. As for additional histological evaluation, Masson's Trichrome staining was used for the detection of collagen fibres in lung on formalin-fixed, paraffin-embedded sections. The collagen fibres stained in blue and the background is stained red. Sections were examined and analysed using bright field microscopy imaging.

[6] = blood, vs untreated counterparts, p<0.01
[7] = lung tissue, PIC+CBC vs sham or PIC
[8] = lung, vs untreated counterparts, p<0.01
[9] = lung tissue, CBD after Poly(I:C)
[10] = whole blood, CBD 5 mg/kg intraperitoneal, 3 doses, after Poly(I:C)

For `CCCCCc1cc(O)c2c(c1)OC(C)(CCC=C(C)C)C=C2` (stereo not shown) [CBC, cannabichromene], the “inhibition of monoacylglycerol lipase (MAGL)” value [1] is given as “weak inhibitor”, the “inhibition of endocannabinoid cellular reuptake” value [2] is given as “inhibitor of endocannabinoid cellular reuptake” and the “increase in blood oxygen saturation” value ([3]; Poly(I:C) mice, CBC treated vs untreated PIC) is given as 8%. The “blood oxygen saturation after CBC treatment” value ([3]; Poly(I:C) mice, pulse oximetry, untreated PIC group 90%) was 98%, the “IFNγ expression level in blood (flow cytometry)” value [3, 6] was “curtailed the expression levels” and the “IL-6 expression level in blood (flow cytometry)” value [3, 6] was “curtailed the expression levels”. For the same compound, the “IL-17 expression level in blood (flow cytometry)” value [3, 6] was “curtailed the expression levels”, the “lung histology (H&E, Masson's trichrome): structural damage, hypertrophy and fibrosis” value ([3]; lung tissue, PIC+CBC vs PIC) was “reduced hypertrophy and fibrosis” and the “TRPA1 expression in lung tissue (immunohistochemistry)” value [3, 7] was “increased the level of expression”. For the same compound, the “TRPV1 expression in lung tissue (immunohistochemistry)” value [3, 7] was “increased the level of expression”, the “IFNγ expression level in lung (flow cytometry)” value [3, 8] was “curtailed the expression levels” and the “IL-6 expression level in lung (flow cytometry)” value [3, 8] was “curtailed the expression levels”. The “IL-17 expression level in lung (flow cytometry)” value [3, 8] was “curtailed the expression levels” and the “activation of TRPA1 channels” value [4] was “potent activator”.

With `C=C(C)[C@@H]1CCC(C)=C[C@H]1c1c(O)cc(CCCCC)cc1O` [CBD, cannabidiol] the “apelin expression in lung tissue (immunofluorescence)” value [5, 9] was “increased apelin expression towards control levels; also recorded: normalized the Apelin expression”, the “lung histology (Masson's trichrome): inflammatory infiltrate, fibrosis, hypertrophy, pulmonary oedema” value [5, 9] was “completely or partially abolished; also recorded: improved the structure towards the normal architecture” and the “apelin expression in blood (flow cytometry)” value [5, 10] was “enhanced expression of apelin; also recorded: normalized the expression level of apelin; also recorded: attenuated these effects”. For the same compound, the “blood T cells (flow cytometry)” value [5, 10] was “returned decreased T cells and increased neutrophils towards the normal level” and the “blood neutrophils (flow cytometry)” value [5, 10] was “returned decreased T cells and increased neutrophils towards the normal level”.
